Measurements reported in US9167815B2, “Agricultural or horticultural fungicide composition and method for controlling plant pathogen” (ISHIHARA SANGYO KAISHA, LTD., priority 2011, dated 2015).

What was measured:
Assay type in all cases: cell-based
Botrytis cinerea = assay: Inhibition test of mycelial growth against gray mold (YS liquid medium, 96-well microplate); conditions: compound alone, 25° C., three days
Description: On a YS (yeast extract+sucrose) liquid culture medium, a certain amount of a chemical solution prepared such that a final concentration of each chemical became a concentration at which the test was carried out was mixed. 100 μL of each of the chemical-containing YS liquid culture media was aliquoted into each well of a 96-well microplate. Thereafter, 50 μL of a spore suspension of gray mold whose spore concentration had been prepared as shown in the following tables was aliquoted into each well and cultivated at 25° C. under a light-dark cycle (light period: 16 hours, dark period: 8 hours). Three days after the cultivation, an area of the well bottom covered by the propagated gray mold hyphae was microscopically examined to determine an inhibition rate of growth (%). The inhibition rate of growth was visually examined while defining an area covered by hyphae in a non-treated well as 100. For the non-treatment, a chemical-free YS liquid culture medium was used. In addition, an expected value of the inhibition rate calculated according to the Colby's formula in the same manner as that in the foregoing Test Example 1 was listed in parentheses of Tables 7 to 13.

Rhizoctonia solani = assay: Inhibition test of mycelial growth against the genus Rhizoctonia (PSA plate); conditions: compound alone, 20° C., 4 days
Description: A mycangium (diameter: 4 mm) obtained by precultivation was transplanted on PSA containing a chemical in a prescribed concentration and then cultured at room temperature of 20° C. for 4 days, followed by measuring a diameter of the grown mycangium to determine an inhibition rate of mycelial growth (%). In addition, an expected value of the inhibition rate calculated according to the Colby's formula in the same manner as that in the foregoing Test Example 1 was listed in parentheses of Tables 4 to 6.

Pythium graminicola = assay: Inhibition test of mycelial growth against the genus Pythium (PSA plate); conditions: compound alone, 20° C., 3 days
Description: A mycangium (diameter: 4 mm) obtained by precultivation was transplanted on PSA containing a chemical in a prescribed concentration and then cultured at room temperature of 20° C. for 3 days, followed by measuring a diameter of the grown mycangium to determine an inhibition rate of mycelial growth (%). In addition, an expected value of the inhibition rate was calculated according to the following Colby's formula and listed in parentheses of Tables 1 to 3. […] Colby's formula: x+y−xy/100 x: Inhibition rate of growth of the component (a) alone (%) y: Inhibition rate of growth of the component (b) alone (%)

[1] = Botrytis cinerea, 72 h, read-out: Inhibition Rate of Mycelial Growth against Botrytis cinerea (%)
[2] = Botrytis cinerea, 72 h, 0.78 ppm, read-out: Inhibition Rate of Mycelial Growth against Botrytis cinerea (%)
[3] = Botrytis cinerea, 72 h, 1.56 ppm, read-out: Inhibition Rate of Mycelial Growth against Botrytis cinerea (%)
[4] = Rhizoctonia solani, 96 h, 0.1 ppm, read-out: Inhibition Rate of Mycelial Growth against Rhizoctonia solani (%)
[5] = Rhizoctonia solani, 96 h, 1 ppm, read-out: Inhibition Rate of Mycelial Growth against Rhizoctonia solani (%)
[6] = Rhizoctonia solani, 96 h, 10 ppm, read-out: Inhibition Rate of Mycelial Growth against Rhizoctonia solani (%)
[7] = Pythium graminicola, 72 h, read-out: Inhibition Rate of Mycelial Growth against Pythium graminicola (%)
[8] = Pythium graminicola, 72 h, 10 ppm, read-out: Inhibition Rate of Mycelial Growth against Pythium graminicola (%)
[9] = Pythium graminicola, 72 h, 100 ppm, read-out: Inhibition Rate of Mycelial Growth against Pythium graminicola (%)

Q: What does the source list for `CON=C(C(=O)OC)c1ccccc1CON=C(C)c1cccc(C(F)(F)F)c1` [trifloxystrobin]?
A: inhibition at 0.39 ppm (Botrytis cinerea; [1]): 0%; inhibition at 0.78 ppm (Botrytis cinerea; [2]): 0%; inhibition at 1.56 ppm (Botrytis cinerea; [3]): 0%

Q: Which results are given for `CO/C=C(/C(=O)OC)c1ccccc1COc1cccc(C(F)(F)F)n1` [picoxystrobin]?
A: Inhibition Rate of Mycelial Growth against Botrytis cinerea (%) (Botrytis cinerea; 6.25 ppm): 1%; Inhibition Rate of Mycelial Growth against Botrytis cinerea (%) (Botrytis cinerea; 12.5 ppm): 2%; Inhibition Rate of Mycelial Growth against Botrytis cinerea (%) (Botrytis cinerea; 25 ppm): 3%

Q: What does the source list for `CO/N=C(/C(=O)OC)c1ccccc1COc1ccccc1C` [kresoxim-methyl]?
A: inhibition at 0.1 ppm (Rhizoctonia solani; [4]): 30%; inhibition at 1 ppm (Rhizoctonia solani; [5]): 39%; inhibition at 10 ppm (Rhizoctonia solani; [6]): 42%; inhibition at 3.13 ppm (Botrytis cinerea; Botrytis cinerea, 72 h, 3.13 ppm, read-out: Inhibition Rate of Mycelial Growth against Botrytis cinerea (%)): 0%; inhibition at 6.25 ppm (Botrytis cinerea; Botrytis cinerea, 72 h, 6.25 ppm, read-out: Inhibition Rate of Mycelial Growth against Botrytis cinerea (%)): 1%; inhibition at 12.5 ppm (Botrytis cinerea; Botrytis cinerea, 72 h, 12.5 ppm, read-out: Inhibition Rate of Mycelial Growth against Botrytis cinerea (%)): 1%; inhibition at 1 ppm (Pythium graminicola; [7]): 56%; inhibition at 10 ppm (Pythium graminicola; [8]): 73%; inhibition at 100 ppm (Pythium graminicola; [9]): 62%

Q: Which results are given for `CNC(=O)/C(=N/OC)c1ccccc1Oc1ccccc1` [metominostrobin]?
A: inhibition at 25 ppm (Botrytis cinerea; Botrytis cinerea, 72 h, 25 ppm, read-out: Inhibition Rate of Mycelial Growth against Botrytis cinerea (%)): 0%; inhibition at 50 ppm (Botrytis cinerea; Botrytis cinerea, 72 h, 50 ppm, read-out: Inhibition Rate of Mycelial Growth against Botrytis cinerea (%)): 1%; inhibition at 100 ppm (Botrytis cinerea; Botrytis cinerea, 72 h, 100 ppm, read-out: Inhibition Rate of Mycelial Growth against Botrytis cinerea (%)): 3%

Q: `O=[N+]([O-])c1cc(C(F)(F)F)c(Cl)c([N+](=O)[O-])c1Nc1ncc(C(F)(F)F)cc1Cl` [fluazinam, 3-chloro-N-(3-chloro-5-trifluoromethyl-2-pyridyl)-α,α,α-trifluoro-2,6-dinitro-p-toluidine] was tested. Which inhibition at 0.1 ppm (Rhizoctonia solani; [4]) did it give?
A: 70%

Q: What about the inhibition at 1 ppm (Rhizoctonia solani; [5]) of the same compound?
A: 77%

Q: What about the inhibition at 10 ppm (Rhizoctonia solani; [6]) of the same compound?
A: 85%

Q: What about the inhibition at 100 ppm (Rhizoctonia solani; Rhizoctonia solani, 96 h, 100 ppm, read-out: Inhibition Rate of Mycelial Growth against Rhizoctonia solani (%)) of the same compound?
A: 87%

Q: And the inhibition at 0.04 ppm (Botrytis cinerea; Botrytis cinerea, 72 h, 0.04 ppm, read-out: Inhibition Rate of Mycelial Growth against Botrytis cinerea (%))?
A: 0%

Q: And the inhibition at 0.08 ppm (Botrytis cinerea; Botrytis cinerea, 72 h, 0.08 ppm, read-out: Inhibition Rate of Mycelial Growth against Botrytis cinerea (%))?
A: 0%

Q: And the inhibition at 0.16 ppm (Botrytis cinerea; Botrytis cinerea, 72 h, 0.16 ppm, read-out: Inhibition Rate of Mycelial Growth against Botrytis cinerea (%))?
A: 80%

Q: What about the inhibition at 0.1 ppm (Pythium graminicola; Pythium graminicola, 72 h, 0.1 ppm, read-out: Inhibition Rate of Mycelial Growth against Pythium graminicola (%)) of the same compound?
A: 32%

Q: What about the inhibition at 1 ppm (Pythium graminicola; [7]) of the same compound?
A: 48%

Q: What about the inhibition at 10 ppm (Pythium graminicola; [8]) of the same compound?
A: 60%

Q: And the inhibition at 100 ppm (Pythium graminicola; [9])?
A: 66%

Q: `CO/C=C(/C(=O)OC)c1ccccc1Oc1cc(Oc2ccccc2C#N)ncn1` [azoxystrobin] was tested. Which “Inhibition Rate of Mycelial Growth against Rhizoctonia solani (%)” value (Rhizoctonia solani; 0.1 ppm) did it give?
A: 4%

Q: What about the “Inhibition Rate of Mycelial Growth against Rhizoctonia solani (%)” value (Rhizoctonia solani; 1 ppm) of the same compound?
A: 27%

Q: What about the “Inhibition Rate of Mycelial Growth against Rhizoctonia solani (%)” value (Rhizoctonia solani; 10 ppm) of the same compound?
A: 41%

Q: What about the “Inhibition Rate of Mycelial Growth against Botrytis cinerea (%)” value (Botrytis cinerea; 3.13 ppm) of the same compound?
A: 0%

Q: And the “Inhibition Rate of Mycelial Growth against Botrytis cinerea (%)” value (Botrytis cinerea; 6.25 ppm)?
A: 0%

Q: And the “Inhibition Rate of Mycelial Growth against Botrytis cinerea (%)” value (Botrytis cinerea; 12.5 ppm)?
A: 1%

Q: And the “Inhibition Rate of Mycelial Growth against Pythium graminicola (%)” value (Pythium graminicola; 10 ppm)?
A: 89%

Q: And the “Inhibition Rate of Mycelial Growth against Pythium graminicola (%)” value (Pythium graminicola; 100 ppm)?
A: 100%

Q: Which “Inhibition Rate of Mycelial Growth against Botrytis cinerea (%)” value (Botrytis cinerea; 0.78 ppm) does the source give for `CNC(=O)/C(=N/OC)c1ccccc1COc1cc(C)ccc1C` [dimoxystrobin] here?
A: 0%

Q: And the “Inhibition Rate of Mycelial Growth against Botrytis cinerea (%)” value (Botrytis cinerea; 1.56 ppm)?
A: 0%

Q: What about the “Inhibition Rate of Mycelial Growth against Botrytis cinerea (%)” value (Botrytis cinerea; 3.13 ppm) of the same compound?
A: 0%

Q: With `COC(=O)N(OC)c1ccccc1COc1ccn(-c2ccc(Cl)cc2)n1` [pyraclostrobin] as the compound, how does the inhibition at 0.1 ppm (Rhizoctonia solani; [4]) read?
A: 26%

Q: What about the inhibition at 1 ppm (Rhizoctonia solani; [5]) of the same compound?
A: 55%

Q: What about the inhibition at 10 ppm (Rhizoctonia solani; [6]) of the same compound?
A: 67%

Q: What about the inhibition at 0.39 ppm (Botrytis cinerea; [1]) of the same compound?
A: 0%

Q: What about the inhibition at 0.78 ppm (Botrytis cinerea; [2]) of the same compound?
A: 1%

Q: And the inhibition at 1.56 ppm (Botrytis cinerea; [3])?
A: 5%

Q: What about the inhibition at 1 ppm (Pythium graminicola; [7]) of the same compound?
A: 83%

Q: What about the inhibition at 10 ppm (Pythium graminicola; [8]) of the same compound?
A: 100%

Q: What about the inhibition at 100 ppm (Pythium graminicola; [9]) of the same compound?
A: 100%
